Test results published in patent US9150510B2, “Amino acid derivative” (NIPPON ZOKI PHARMACEUTICAL CO., LTD., priority 2008, dated 2015).
Counter-ions that a name gives are not always drawn.

Experiments:
[1] = Test of blood kinetics in the rats; assay type: in vivo; conditions: rat, plasma, 2 mg/kg, fasted Wistar male rats, oral single dose of mixed solution of five compounds, each compound 2 mg/5 mL/kg, n=5, LC-MS; for AUC(0-inf): read-out: AUC0-∞ (area under the curve for concentration in blood, time 0 to infinite hours); for Cmax: read-out: Cmax (maximum concentration in plasma)
Description: Ten milligrams of a compound of the present invention was properly converted to a sodium salt with the same amount of sodium hydroxide, where necessary, and each was dissolved in 5 mL of water. Five compounds each among these aqueous solutions of the compounds of the present inventions were mixed, to prepare a mixed solution containing 0.4 mg/mL each of each compound. Six-week old Wistar SPF male rats that were fasted were orally administered with the mixed solution in a single dose using a gavage tube (each compound 2 mg/5 mL/kg, n=5). At time points of 0.25, 0.5, 1, 2, 4, and 8 hours after the administration, about 150 μL of blood was collected using a heparin-added capillary tube from veins of rat tails. The capillary tubes were centrifuged to collect the plasma. The plasma sample was deprotenized and the supernatant was diluted to prepare each of measurement sample solutions. The concentration of the compound of the present invention in each of measurement sample solutions was quantified using LC-MS, and Cmax (maximum concentration in plasma) and AUC (area under the curve for concentration in blood, time 0 to infinite (∞) hours) of the compounds of the present invention were calculated.

ddY-type mice = assay: Analgesic efficacy test (1): acetic acid writhing test (nociceptive pain model animal); assay type: in vivo; conditions: Mus musculus, 25 min, writhing number, male ddY mice, acetic acid i.p. 25 min after administration, mean ± standard error, read-out: Percent Suppression (%)
Excerpt: A compound of the present invention was orally administered to mice, to carry out an analgesic efficacy test according to acetic acid writhing test (nociceptive pain model animal). As an experimental animal, 4-week old male ddY-type mice were previously bred, and thereafter 8 mice per one group were used in the experiment. A solution or suspension prepared by dissolving or suspending a compound of the present invention in a 0.5% (w/v) aqueous CMC-Na solution was orally administered as a test substance in a single dose. While, to a control group, a 0.5% (w/v) aqueous CMC-Na solution was administered in the same manner. After 25 minutes from administration, the mice were intraperitoneally administered with a 0.7% (v/v) acetic acid/physiological saline at the dose of 10 mL/kg. From 5 minutes thereafter, writhing number in a 10-minute period was counted, and a suppressive rate for each individual (mean±standard error) was calculated by the following formula: […]
In the test for significance difference, Baltlett's test was carried out in the comparison between multiple groups of the group administered with test substance with the control group. In the case of homoscedasticity, Dunnett's multiple comparison test of parametrics, and in the case of heteroscedasticity, Dunnett's multiple comparison test of non-parametrics were used. In addition, in the test of dose dependency, Jockheere-Terpstra's test was used. In all cases, significance difference was considered to be found at P<0.05.

Chung model rat = assay: Analgesic efficacy test (2): Chung model rat, neuropathic pain model (allodynia, von Frey filament); assay type: in vivo; conditions: Table 13; oral single dose 10 mg/kg; Wistar male rats, L5 spinal nerve ligation; mean ± standard error
Description: An analgesic efficacy test was conducted using a Chung model rat, a neuropathic pain model. Using Wistar male rats after passing 9-week old as an experimental animal, a model rat was prepared in accordance with the method of Kim and Chung (Pain, 50, 355-363, 1992). Specifically, left L5 spinal nerves of rats were exposed under anesthetization with pentobarbital (35 mg/kg, intraperitoneal administration), and firmly ligated with 5-0 silk yarn at L5 dorsal root ganglion peripheral side. The animals were placed in a transparent acrylic cage of which bottom was wire netted The measurement of allodynia was carried out using von Frey filament (manufactured by North Coast Medical Inc.) and a 50% reaction threshold was calculated according to an up-down method, in accordance with methods of Chaplan et al. (J. Neurosci. Method, 53, 55-63, 1994) and Lee et al. (J. Neurophysiol., 81, 2226-2233, 1999). The 50% reaction thresholds were measured twice before injury of the spinal nerve, and those animals of which thresholds were outside the standard were removed from the operation of spinal nerve injury. On or after 14 days from the spinal nerve injury, a 50% reaction threshold was measured, and those showing thresholds of 1 g or more and less than 4 g were used as experimental animal. The group was constituted by 7 rats per group so that an average of a 50% reaction threshold for each group would be nearly even.
A solution or suspension prepared by dissolving or suspending a compound of the present invention in a 0.5% (w/v) aqueous CMC-Na solution was orally administered as a test substance in a single dose while, a 0.5% (w/v) aqueous CMC-Na solution was administered in the same manner to the control group for nerve injury. After 30 minutes from the administration, the measurement of allodynia was carried out, and a 50% reaction threshold (mean±standard error) was calculated. In the test for significance difference, Baltlett's test was carried out in the comparison between multiple groups of the group administered with test substance with the control group for nerve injury. In the case of homoscedasticity, Dunnett's multiple comparison test of parametrics, and in the case of heteroscedasticity, Dunnett's multiple comparison test of non-parametrics were used. In all cases, significance difference was considered to be found at P<0.05.

SMILES: O=C(C=Cc1ccccc1O)N[C@@H](Cc1c[nH]c2ccccc12)C(=O)O (as salt: sodium) [Compound 2, N^α-[3-(2-Hydroxyphenyl)acryloyl]-L-tryptophan]
- melting point: 172 to 173 °C

SMILES: O=C(C=Cc1ccc(O)cc1)N[C@@H](Cc1c[nH]c2ccccc12)C(=O)O (as salt: sodium) [Compound 7, N^α-[3-(4-Hydroxyphenyl)acryloyl]-L-tryptophan]
- melting point: 158 to 159 °C

SMILES: C=CC(=O)N[C@@H](Cc1c[nH]c2ccccc12)C(=O)O (as salt: sodium) [Compound 1, N^α-Acryloyl-L-tryptophan]
- melting point: 150 to 151 °C

SMILES: O=C(C=Cc1ccc(F)cc1)N[C@@H](Cc1c[nH]c2ccccc12)C(=O)O (as salt: sodium) [Compound 5, N^α-[3-(4-Fluorophenyl)acryloyl]-L-tryptophan]
- melting point: 140 to 141 °C

SMILES: O=C(C=Cc1ccccc1F)N[C@@H](Cc1c[nH]c2ccccc12)C(=O)O [Compound 3, N^α-[3-(2-Fluorophenyl)acryloyl]-L-tryptophan]
- AUC(0-inf) [1]: 26200 ng·h/mL
- Cmax [1]: 5800 ng/mL
- melting point: 104 to 105 °C
- inhibition in vivo at 3 mg/kg (ddY-type mice; oral single dose 3 mg/kg): 36.9 ± 10.6%

SMILES: O=C(C=Cc1cccc(O)c1)N[C@@H](Cc1c[nH]c2ccccc12)C(=O)O (as salt: sodium) [Compound 6, N^α-[3-(3-Hydroxyphenyl)acryloyl]-L-tryptophan]
- melting point: 163 to 164 °C

SMILES: O=C(C=Cc1c(F)cccc1F)N[C@@H](Cc1c[nH]c2ccccc12)C(=O)O [Compound 13, N^α-[3-(2,6-Difluorophenyl)acryloyl]-L-tryptophan]
- 50% Reaction Threshold (g), Group Administered with Test Substance, 30 Min. After Administration (Chung model rat): 9.94 ± 1.56 g
- AUC(0-inf) [1]: 46300 ng·h/mL
- Cmax [1]: 7400 ng/mL
- inhibition in vivo at 10 mg/kg (ddY-type mice; oral single dose 10 mg/kg): 52.9 ± 7.7%

SMILES: O=C(C=Cc1cccc(F)c1)N[C@@H](Cc1c[nH]c2ccccc12)C(=O)O [Compound 4, N^α-[3-(3-Fluorophenyl)acryloyl]-L-tryptophan]
- 50% Reaction Threshold (g), Group Administered with Test Substance, 30 Min. After Administration (Chung model rat): 10.73 ± 1.59 g
- AUC(0-inf) [1]: 28700 ng·h/mL
- Cmax [1]: 4300 ng/mL
- inhibition in vivo at 100 mg/kg (ddY-type mice; oral single dose 100 mg/kg): 42.4 ± 8.3%

SMILES: N#Cc1ccccc1C=CC(=O)N[C@@H](Cc1c[nH]c2ccccc12)C(=O)O (as salt: sodium) [Compound 9, N^α-[3-(2-Cyanophenyl)acryloyl]-L-tryptophan]
- melting point: 124 to 125 °C
